This data set can be described thus: solvent given as SMILES.

On to `COc1ccc(C2=C(c3ccc(F)cc3)C(c3ccccc3)=[N+]3C2=Nc2c(-c4ccc(OC)cc4)c(-c4ccc(F)cc4)c(-c4ccccc4)n2[B-]3(F)F)cc1`, for which the emission maximum (in Cc1ccccc1) came to 692 nm.
For `C=Cc1cc2ccc(N(CC)CC)cc2oc1=O`, the emission maximum (in CC#N) is 470 nm.
On to `CC[Si](CC)(CC)c1cc2ccc3cccc4ccc(c1C(=O)NC(C)(C)C)c2c34`, for which the emission maximum (in ClC(Cl)Cl) is 383 nm.
Consider `Cc1nc2c(ccc3c2sc(/C=C/c2cc4c5c(c2)CCCN5CCC4)[n+]3C)s1`, for which the emission maximum reads like this: (in CO) 622 nm; (in ClC(Cl)Cl) 623 nm.
`CCCC1(CCC)c2cc(-c3ccc(C(C)(C)C)cc3)ccc2-c2ccc(-c3ccc4c(c3)C(CCC)(CCC)c3cc(-c5ccc6c(c5)C(CCC)(CCC)c5cc(-c7ccc8c(c7)C(CCC)(CCC)c7cc(-c9ccc(C(C)(C)C)cc9)ccc7-8)ccc5-6)ccc3-4)cc21` showed an emission maximum (in C1CCCCC1) of 413 nm.
With `COc1ccc(C2=C(C)C3=C(c4c(-c5ccccn5)nc5ccccn45)c4c(C)cc(C)n4[B-](F)(F)[N+]3=C2C)cc1`, the emission maximum (in ClCCl) was determined as 592 nm.
With `N#Cc1coc2ccccc2c1=O`, the emission maximum by setting is: (in C1CCOC1) 373 nm; (in C1COCCO1) 402 nm; (in CC#N) 495 nm; (in CC(C)O) 411 nm; (in CCCCO) 500 nm; (in CCCO) 440 nm. The emission maximum runs as follows: (in CCOC(C)=O) 495 nm; (in CN(C)C=O) 494 nm; (in CO) 415 nm; (in CS(C)=O) 490 nm; (in ClC(Cl)Cl) 438 nm; (in O) 396 nm.
`COc1cc2c(cc1-c1ccc(C)cc1)Cc1c3c(c4c(c1-2)-c1cc(OC)c(-c2ccc(C)cc2)cc1C4)C(=O)N(CCC(C)C)C3=O` yielded an emission maximum (in C1CCOC1) of 476 nm.
Compound `c1ccc(N(c2ccccc2)c2ccc(-c3ccc4c(c3)C3(c5cc(-c6ccc(N(c7ccccc7)c7ccccc7)cc6)ccc5-4)c4ccccc4N(c4ccccc4)c4ccccc43)cc2)cc1` showed an emission maximum (in ClCCl) of 451 nm and an emission maximum (in c1cc(-n2c3ccccc3c3ccccc32)cc(-n2c3ccccc3c3ccccc32)c1) of 432 nm.
Consider `N#Cc1c(-n2c3ccccc3c3cc(I)ccc32)c(-n2c3ccccc3c3cc(I)ccc32)c(C#N)c(-n2c3ccccc3c3cc(I)ccc32)c1-n1c2ccccc2c2cc(I)ccc21`, for which the emission maximum (in Cc1ccccc1) was 548 nm.
On to `CCCCCCCCCCCCOc1cc2c3c(ccc4c5c(N6CCOCC6)cc6c7c(ccc(c1c34)c75)C(=O)N(C1CCCCC1)C6=O)C(=O)N(C1CCCCC1)C2=O`, for which the emission maximum (in ClC(Cl)Cl) was 697 nm.
For the compound `CC(C)(C)NC(=O)c1cccc2ccc3c4cc(Cl)ccc4c4ccc(Cl)cc4c3c12`, the emission maximum (in ClCCl) was 407 nm.
As for `CN(C)c1ccc2c(c1)C(=O)c1ccccc1-2`, the emission maximum is, setting by setting: (in C1CCCCC1) 600 nm; (in c1ccccc1) 644 nm.
The compound `Oc1ccccc1-c1nc2ccccc2s1` registered an emission maximum (in CCO) of 373 nm, an emission maximum (in ClCCl) of 396 nm and an emission maximum (in O) of 463 nm.
As to `Cc1cc(C)c(B(c2c(C)cc(C)cc2C)c2cc3ccc4ccccc4c3c3c2cc(N(C)C)c2ccccc23)c(C)c1`, the emission maximum is reported as 554 nm (in C1CCCCC1); 601 nm (in C1CCOC1); 613 nm (in CC#N); 585 nm (in ClC(Cl)Cl); 582 nm (in c1ccccc1).
Where the note is “in ClCCl”, `S=P1(c2ccccc2)c2cccc3c4c5ccccc5c5ccccc5c4c4ccc1n4c23` (centres undefined) showed an emission maximum of 493 nm.
Same read-out and setting: next, `COc1ccc(-c2cnc3cccc(-c4ccccc4)n23)cc1`: 484 nm.
On to `c1ccc(N(c2ccccc2)c2ccc(-c3cnc(-c4ccncc4)s3)cc2)cc1`, for which the emission maximum (in CO) came to 566 nm.
On to `CC(C)[Si](C#Cc1c2nc3c(nc2c(C#C[Si](C(C)C)(C(C)C)C(C)C)c2nc4ccccc4nc12)C1c2ccccc2C3c2ccccc21)(C(C)C)C(C)C`, for which the emission maximum (in CCCCCC) amounted to 563 nm.
For the setting “in CC#N”, `CCOC(=O)c1c2c3c(cccc3c3cc4ccccc4cc13)N(C)C2=O` yielded an emission maximum of 413 nm.
For `COc1ccc(C2=C3C(C)=CC(C)=[N+]3[B-](F)(F)n3c(/C=C/c4ccc(N(C)C)cc4)cc(C)c32)cc1`, the emission maximum is, setting by setting: (in C1CCCCC1) 612 nm; (in C1CCOC1) 664 nm; (in C1COCCO1) 648 nm; (in CC1CCCCC1) 612 nm; (in CC#N) 717 nm; (in CC(C)=O) 695 nm. Also, the emission maximum by setting is: (in CC(C)OC(C)C) 629 nm; (in CCC#N) 710 nm; (in CCCC#N) 695 nm; (in CCCCO) 678 nm; (in CCCCOCCCC) 627 nm; (in CCOC(C)=O) 665 nm. Moreover, the emission maximum is, setting by setting: (in CCOCC) 641 nm; (in CN(C)C=O) 718 nm; (in CO) 696 nm; (in CS(C)=O) 737 nm; (in Cc1ccccc1) 640 nm; (in ClC(Cl)Cl) 656 nm.
Where the note is “in ClCCl”, `CCCCCCn1c2ccsc2c2sc3c(sc4c5sccc5n(CCCCCC)c43)c21` registered an emission maximum of 411 nm.
Turning to `Cc1ccc(-n2c3ccccc3c3cc(C(=C(C#N)C#N)c4ccccc4)ccc32)cc1`, the emission maximum (in C1CCOC1) stood at 527 nm; the emission maximum (in CC#N) is reported as 545 nm; the emission maximum (in CC(C)=O) was determined as 567 nm; the emission maximum (in CCOC(C)=O) stood at 540 nm; the emission maximum (in CO) was 583 nm; the emission maximum (in CS(C)=O) was found to be 591 nm. For the same compound, the emission maximum runs as follows: (in Cc1ccccc1) 517 nm; (in ClC(Cl)Cl) 546 nm.
With `C[Si](C)(C)[Si](C)(C)c1ccc2cc3ccccc3cc2c1`, the emission maximum runs as follows: (in C1CCCCC1) 411 nm; (in CC#N) 412 nm.
Compound `Cc1c(COC(=O)c2ccccc2Br)n2c(OCC(=O)c3ccccc3Br)c(C)c(=O)n2c1=O` gave an emission maximum (in CCO) of 458 nm.
For `CC(C)(C)c1ccc(-c2c3ccccc3c3n2[B-](F)(F)[N+]2=Cc4c5ccccc5c(-c5ccc(C(C)(C)C)cc5)n4[B-](F)(F)[N+]2=C3)cc1`, the emission maximum is 601 nm (in CC#N); 603 nm (in CCCCCC); 607 nm (in CN(C)C=O); 611 nm (in Cc1ccccc1); 608 nm (in ClCCl).
For the compound `CCCCCCCCC1(CCCCCCCC)c2cc3c(cc2-c2sc(-c4ccc(/C=C5\SC(SCC)=NC5=O)c5nsnc45)cc21)C(CCCCCCCC)(CCCCCCCC)c1cc(-c2ccc(/C=C4\SC(SCC)=NC4=O)c4nsnc24)sc1-3`, where the note is “in ClC(Cl)Cl”, the emission maximum was 718 nm.
`CCn1c2ccccc2c2cc(C#Cc3cc(C#Cc4ccc5c(c4)c4ccccc4n5CC)nc(OC)n3)ccc21`: the emission maximum worked out at 445 nm (in C1CCOC1); 442 nm (in CCOC(C)=O); 499 nm (in CN(C)C=O); 411 nm (in Cc1ccccc1); 467 nm (in ClCCl).
`[O-]c1ccccc1-c1[nH+]c2c3ccccc3c3ccccc3c2o1` gave an emission maximum (in Cc1ccccc1) of 495 nm.
As for `CC(C)(C)c1ccc2c(c1)c1cc(C(C)(C)C)ccc1n2-c1cccc(-c2nc(-c3cccc(-n4c5ccc(C(C)(C)C)cc5c5cc(C(C)(C)C)ccc54)c3)nc(-c3cccc(P(=O)(c4ccccc4)c4ccccc4)c3)n2)c1`, the emission maximum is, setting by setting: (in C1CCOC1) 514.41 nm; (in CC#N) 572.13 nm; (in CC(C)=O) 552.3 nm; (in CN(C)C=O) 532.99 nm; (in Cc1ccccc1) 481.21 nm; (in ClC(Cl)Cl) 511.48 nm. In addition, the emission maximum was 532.99 nm (in ClCCl) and 484 nm (in O=P(c1ccccc1)(c1ccccc1)c1ccccc1Oc1ccccc1P(=O)(c1ccccc1)c1ccccc1).
With `O=C1NC(=O)c2c1c1c3ccccc3[nH]c1c1[nH]c3ccccc3c21`, the emission maximum reads like this: (in C1CCOC1) 475 nm; (in CC#N) 500 nm; (in CC(C)OC(C)C) 450 nm; (in CCCCOCCCC) 461 nm; (in CCO) 550 nm; (in CCOC(C)=O) 473 nm. In addition, the emission maximum reads like this: (in CN(C)C=O) 503 nm; (in Cc1ccccc1) 465 nm; (in ClCCl) 492 nm.
`C[Si](C)(C)c1cccc2ccccc12` gave an emission maximum (in C1CCCCC1) of 328 nm.
As to `Cc1ccc(C2=[N+]3C(=Cc4ccc(C)n4[B-]3(F)F)c3ccccc32)[nH]1`, the emission maximum amounted to 621 nm (in C1CCOC1); 620 nm (in CC#N); 613 nm (in CCCCCC); 616 nm (in CO); 623 nm (in Cc1ccccc1); 624 nm (in ClCCl).
In the case of `COCCC1=Cc2nc1ccc1[nH]c(cc1CCOC)c1nc(c(OC(C)=O)cc3[nH]c2cc3CCOC)C(CCOC)=C1`, the emission maximum (in Cc1ccccc1) is 652 nm.
Consider `CCCCCCCCCCCCN1C(=O)c2c(c3ccc4cc(-c5ccc(Cl)cc5)c(OC)cc4c3c3c2ccc2cc(-c4ccc(Cl)cc4)c(OC)cc23)C1=O`, for which the emission maximum (in ClCCl) worked out at 526 nm.
Consider `CCN(CC)c1ccc2cc(-c3ccc(C(F)(F)F)cc3)oc(=O)c2c1`, for which the emission maximum worked out at 454 nm (in CC(C)=O); 418 nm (in CCCCCC); 468 nm (in CCCCO); 470 nm (in CCCO); 471 nm (in CCO); 443 nm (in CCOC(C)=O). For the same compound, the emission maximum was 462 nm (in CN(C)C=O), 475 nm (in CO) and 450 nm (in ClC(Cl)Cl).
For `COc1ccc(C2=C3C=CC(C)=[N+]3[B-](F)(F)n3c(C)ccc32)cc1`, the emission maximum amounted to 521 nm (in C1CCCCC1); 521 nm (in C1CCOC1); 517 nm (in CC#N); 518 nm (in CCOC(C)=O); 518 nm (in CO); 524 nm (in Cc1ccccc1). The compound also returned an emission maximum (in ClC(Cl)Cl) of 523 nm.

The values above are taken from the Deep4Chem optical property database.
